The values that follow are results of earlier work, collected in patent US6548270B1, “DNA encoding human acid-sensing ion channel BNaC4 (ASIC4)” (Ortho-McNeil Pharmaceutical, Inc., priority 2000, dated 2003).

One data set addresses T1, ASIC1B (Rattus norvegicus, UniProt P55926).
T1 sequence (P55926 1-559 isoform P55926-3): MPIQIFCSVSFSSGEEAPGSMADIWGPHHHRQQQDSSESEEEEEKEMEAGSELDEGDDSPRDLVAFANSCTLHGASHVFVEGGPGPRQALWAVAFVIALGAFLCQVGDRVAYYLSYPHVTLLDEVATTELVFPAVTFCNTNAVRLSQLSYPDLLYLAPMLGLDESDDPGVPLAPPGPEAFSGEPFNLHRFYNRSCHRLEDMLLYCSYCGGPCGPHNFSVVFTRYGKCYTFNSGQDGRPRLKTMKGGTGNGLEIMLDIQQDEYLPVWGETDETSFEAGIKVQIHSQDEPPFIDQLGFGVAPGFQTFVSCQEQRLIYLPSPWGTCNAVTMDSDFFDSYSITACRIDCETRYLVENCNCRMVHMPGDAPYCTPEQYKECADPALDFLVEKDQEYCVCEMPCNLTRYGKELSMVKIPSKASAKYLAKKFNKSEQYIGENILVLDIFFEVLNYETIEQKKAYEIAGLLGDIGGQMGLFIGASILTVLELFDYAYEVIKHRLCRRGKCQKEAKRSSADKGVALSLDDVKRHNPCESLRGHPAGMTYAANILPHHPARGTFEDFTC
Particulars: read-out: Amiloride sensitivity, IC50; cited from earlier work.

The target of another data set is T2, MDEG1 + MDEG2 (Rattus norvegicus, UniProt Q62962).
T2 sequence (Q62962 1-512): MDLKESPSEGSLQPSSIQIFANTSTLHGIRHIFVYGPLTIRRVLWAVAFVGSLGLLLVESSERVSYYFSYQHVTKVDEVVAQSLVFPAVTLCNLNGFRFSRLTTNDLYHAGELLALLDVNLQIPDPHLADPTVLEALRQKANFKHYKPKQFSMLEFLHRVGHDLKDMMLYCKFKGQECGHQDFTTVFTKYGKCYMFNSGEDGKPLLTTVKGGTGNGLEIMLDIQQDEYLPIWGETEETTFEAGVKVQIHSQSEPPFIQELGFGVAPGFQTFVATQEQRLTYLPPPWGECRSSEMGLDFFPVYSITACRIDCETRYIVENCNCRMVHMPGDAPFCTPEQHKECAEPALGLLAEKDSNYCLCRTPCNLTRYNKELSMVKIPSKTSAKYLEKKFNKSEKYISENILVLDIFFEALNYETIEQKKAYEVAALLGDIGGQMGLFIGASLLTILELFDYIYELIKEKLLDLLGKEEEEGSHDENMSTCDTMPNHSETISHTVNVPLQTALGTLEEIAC
T2 sequence (Q62962 1-563 isoform Q62962-2): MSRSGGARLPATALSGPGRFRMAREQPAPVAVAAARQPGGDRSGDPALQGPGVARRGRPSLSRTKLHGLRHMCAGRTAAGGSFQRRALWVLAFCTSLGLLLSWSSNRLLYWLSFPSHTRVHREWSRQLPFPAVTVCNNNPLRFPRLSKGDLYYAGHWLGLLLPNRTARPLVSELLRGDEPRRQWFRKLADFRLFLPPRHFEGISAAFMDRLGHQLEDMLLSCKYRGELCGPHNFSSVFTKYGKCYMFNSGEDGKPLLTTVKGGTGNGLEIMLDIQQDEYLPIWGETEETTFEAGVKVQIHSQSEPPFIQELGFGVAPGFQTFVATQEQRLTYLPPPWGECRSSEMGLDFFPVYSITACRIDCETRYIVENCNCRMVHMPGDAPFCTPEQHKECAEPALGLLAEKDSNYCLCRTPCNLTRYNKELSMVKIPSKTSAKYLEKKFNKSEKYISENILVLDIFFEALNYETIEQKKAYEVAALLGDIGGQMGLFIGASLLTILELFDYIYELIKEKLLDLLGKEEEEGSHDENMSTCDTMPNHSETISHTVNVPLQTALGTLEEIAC
The settings on record: 500 μM amiloride; cited from earlier work.

In another data set the target is T3, hASIC3 (Homo sapiens, UniProt Q9UHC3).
T3 sequence (Q9UHC3 1-531): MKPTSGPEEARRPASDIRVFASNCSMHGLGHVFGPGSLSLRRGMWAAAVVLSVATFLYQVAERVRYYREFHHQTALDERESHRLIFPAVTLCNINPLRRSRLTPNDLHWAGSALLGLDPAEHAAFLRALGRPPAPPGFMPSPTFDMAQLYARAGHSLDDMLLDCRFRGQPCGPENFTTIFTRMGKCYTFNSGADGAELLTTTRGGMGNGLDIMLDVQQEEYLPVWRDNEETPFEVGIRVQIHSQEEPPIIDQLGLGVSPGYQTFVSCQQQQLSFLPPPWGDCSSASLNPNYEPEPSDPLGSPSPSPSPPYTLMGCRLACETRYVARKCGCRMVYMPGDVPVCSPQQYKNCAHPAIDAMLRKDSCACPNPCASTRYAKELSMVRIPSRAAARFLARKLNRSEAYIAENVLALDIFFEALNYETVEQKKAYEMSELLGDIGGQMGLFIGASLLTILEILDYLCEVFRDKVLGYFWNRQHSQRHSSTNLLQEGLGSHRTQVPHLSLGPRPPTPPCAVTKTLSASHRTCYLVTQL
Particulars: 100 μM amiloride, Seguela and Babinski, 1999; cited from earlier work.

pIC50: −log10 of the molar value.

`N=C(N)NC(=O)c1nc(Cl)c(N)nc1N` [amiloride]: the pIC50 on ASIC1B is 4.68. For the same compound, at MDEG1 + MDEG2, the “Amiloride sensitivity (block)” value is recorded as “MDEG1 + MDEG2 completely”. For the same compound, the “decrease of sustained current” value on hASIC3 is “sustained current by ˜30%; fast”.
